Data on 3 molecules can be found in US8486683B2, “Beta-glucosidase enzymes” (Iogen Energy Corporation, priority 2009, dated 2013).

For series [1], the system named is Trichoderma reesei beta-glucosidase TrCel3A variant TrCel3A-I543N, SEQ ID NO: 10 (full: SEQ ID NO: 125). Kind of series: Initial rate assay of cellobiose hydrolysis, TrCel3A-I543N (Example 9). Type of series: biochemical. As to conditions: relative to parental TrCel3A. The source says:
(§1) KG is defined as the concentration of glucose which reduces the enzymatic activity of the beta-glucosidase by 50%. […] The kcat is the catalytic rate constant for the hydrolysis of cellobiose. Example 8 details an assay for measuring the KG and KG2 of parental and modified TrCel3A beta-glucosidases. Example 9 details an assay for measuring the kcat of parental and modified TrCel3A beta-glucosidases.
(§2) KG of the parental and modified TrCel3A beta-glucosidases can be determined by measuring the rate of hydrolysis of a chromogenic substrate, such as p-nitrophenyl-beta-D-glucopyranoside (pNPG), in the presence of various concentrations of glucose as described in Example 8. […] The KG2 constants for parental and modified TrCel3A beta-glucosidases can be determined by measuring the rate of hydrolysis of cellobiose in reactions containing increasing concentrations of cellobiose or, alternatively, by measuring the rate of hydrolysis of a chromogenic substrate, such as pNPG, in the presence of various concentrations of a cellobiose as described in Example 8. […] The kcat values for parental and modified TrCel3A beta-glucosidases can be determined by measuring the rate of cellobiose hydrolysis at varying concentrations of a cellobiose substrate, for example, as described in Example 9. […]

In series [2] the target is T1, Trichoderma reesei beta-glucosidase TrCel3A (Cel3A, BGL1), wild type (parental), SEQ ID NO: 116 / SEQ ID NO: 1 (Trichoderma reesei, UniProt Q12715).
T1 sequence (Q12715 32-744): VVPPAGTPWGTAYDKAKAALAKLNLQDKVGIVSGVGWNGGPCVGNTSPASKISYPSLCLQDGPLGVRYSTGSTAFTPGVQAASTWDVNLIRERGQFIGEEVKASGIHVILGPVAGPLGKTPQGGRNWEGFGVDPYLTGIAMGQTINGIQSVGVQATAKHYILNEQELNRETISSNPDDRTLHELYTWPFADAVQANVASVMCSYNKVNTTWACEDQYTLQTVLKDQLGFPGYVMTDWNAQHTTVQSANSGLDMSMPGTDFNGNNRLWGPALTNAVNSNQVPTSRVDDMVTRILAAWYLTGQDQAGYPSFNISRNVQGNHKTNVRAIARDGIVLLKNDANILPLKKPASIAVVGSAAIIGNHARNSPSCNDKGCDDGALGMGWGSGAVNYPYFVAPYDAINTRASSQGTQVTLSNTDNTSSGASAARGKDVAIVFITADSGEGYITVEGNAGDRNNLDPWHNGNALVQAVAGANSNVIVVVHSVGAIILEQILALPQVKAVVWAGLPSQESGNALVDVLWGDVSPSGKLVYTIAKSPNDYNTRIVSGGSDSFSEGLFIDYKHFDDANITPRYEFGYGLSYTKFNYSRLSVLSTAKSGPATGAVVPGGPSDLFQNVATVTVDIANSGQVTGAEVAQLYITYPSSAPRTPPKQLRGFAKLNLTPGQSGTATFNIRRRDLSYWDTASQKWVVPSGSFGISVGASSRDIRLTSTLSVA
Kind of series: pNPG competitive substrate/inhibitor real-time kinetic assay, parental TrCel3A (Example 8).

Series [3] addresses T1, Trichoderma reesei beta-glucosidase TrCel3A (Cel3A, BGL1), wild type (parental), SEQ ID NO: 116 / SEQ ID NO: 1. Kind of series: Initial rate assay of cellobiose hydrolysis, parental TrCel3A (Example 9). Type of series: biochemical.
Text: as §1, §2

Series [4] deals with Several microbial beta-glucosidases with higher tolerance to glucose inhibition. Conditions: literature, read-out: KG (tolerance to glucose inhibition); cited from earlier work.
Series [5] concerns the target Beta-glucosidases from most fungi. As to conditions: literature, read-out: KG values for glucose (glucose inhibition); cited from earlier work.
Substrate in series [6]: OC[C@H]1O[C@@H](O[C@H]2[C@H](O)[C@@H](O)C(O)O[C@@H]2CO)[C@H](O)[C@@H](O)[C@@H]1O
The experiment in a line: purified protein, by the assay type. As to conditions: other: 0.4 mM pNPG, 3 mM cellobiose, 50 mM citrate pH 5.0, 50° C.

Several values for one entry are separate records, joined by “and”; a condition that tells them apart may be missing. Equal values may be shown once.

`OC[C@H]1O[C@@H](O[C@H]2[C@H](O)[C@@H](O)C(O)O[C@@H]2CO)[C@H](O)[C@@H](O)[C@@H]1O` (stereo partly drawn) [cellobiose, gluco-beta-(1,4)-glucoside]: the Relative kcat in series [1] worked out at 0.73; in series [3] (cellobiose, relative to parental TrCel3A), 1. Further, in series [2] (relative to parental TrCel3A), the “Relative KG2” value came out at 1.00. The “kcat (catalytic rate constant for cellobiose)” value in series [3] (0.3 to 40 mM cellobiose, 50° C., 15 min) is 8.92 µmol/min/mg and 8.92 ± 0.29 µmol/min/mg.

Consider `OC[C@H]1OC(O)[C@H](O)[C@@H](O)[C@@H]1O` (some centres unmarked) [glucose], for which the results for the Ki in series [2], in series [4] and in series [5] were 580 µM, more than 8000 µM and 600 to 8000 µM, respectively.

B1: Trichoderma reesei beta-glucosidase TrCel3A (Cel3A, BGL1), wild type (parental), SEQ ID NO: 116 / SEQ ID NO: 1 (Trichoderma reesei) (protein)
chain: T1 sequence (Q12715 32-744)
Broadly, the Km is the substrate concentration at which the rate is half of its maximum. As to B1, in series [6], the Km worked out at 1180 ± 120 µM.
